{
  "source": "patent US20060165683A1",
  "about": "“Methods and compositions for control of bone formation via modulation of sympathetic tone” (priority 2001, published 2006)",
  "key": {"[1]": {"tested_on": "murine primary osteoblasts", "assay": "cAMP production in murine primary osteoblasts", "type": "cell-based, mouse", "settings": "added with isoproterenol or norepinephrine", "experimental": "(§1) Primary osteoblast cultures were established as previously described (see, e.g., Ducy et al., 2000, Cell 100: 197-207) and maintained in αMEM/0.1 mg/ml ascorbic acid supplemented with 10% FBS. SaOS-2 were grown in MEM/10% FBS. For cAMP assay confluent cultures were incubated with serum free medium containing 100 μM IBMX (3-isobutyl-1-methylxanthine, Sigma) for 8 minutes before PBS, PTH(1-34) (Bachem), isoproterenol, norepinephrine, phenylephrine (Sigma) or propranolol were added for 5 min. Intracellular cAMP concentration was measured by immunoassay (R&D Systems). For gene expression analyses, primary osteoblasts were treated for 72 hours with appropriate drugs in 0.1% FBS. Hormone serum levels were quantified using immunoassays kits from Peninsula Laboratories (Insulin) or Alpco Diagnostics (leptin). Deoxypyridinoline cross-links and Creatinine were measured in morning urines using the Quidel kits. a1(I) leptin bioactivity was verified by cotransfection of 293 cells expressing ObRb with a STAT3-responsive-luc reporter construct, pSVβgal plasmid and a1(I) leptin expression vector or mock. Twenty-four hours later luciferase and β-galactosidase activities were measured. Data represents ratios of luciferase/β-galactosidase activities, and values are mean of 6 independent transfection experiments.\nFor a sympathetic regulation of bone formation to exist several requirements have to be fulfilled. The first one is that functional adrenergic receptors are present on osteoblasts. […] Immunohistochemical analysis of long bones from transgenic mice expressing LacZ under the control of the osteoblast-specific fragment of the a1(I) collagen promoter verified the presence of β2-adrenergic receptors on osteoblasts (FIG. 13B). No other adrenergic receptor subtype could be detected. […] Electron micrographs confirmed the presence of unmyelinated peripheral nerve axons coursing through the marrow adjacent to bone trabeculae and to osteoblasts (FIG. 13E). β-adrenergic receptors are G-coupled receptors that signal through the cAMP pathway (see, e.g., Benovic et al., 1988, Annu Rev Cell Biol 4:405-428). Thus, to assess the biologic relevance of the presence of β2-adrenergic receptors on osteoblasts, these cells were treated with isoproterenol, a β-adrenergic agonist, alone or in the presence of propranolol, a β-adrenergic receptor antagonist; with norepinephrine, the natural ligand of β-adrenergic receptors; with phenylephrine, an α-adrenergic agonist or with vehicle and measured cAMP production. As a positive control, parathyroid hormone (PTH) that binds to another G-coupled receptor present in osteoblasts was used (Gardella & Juppner, 2001, Trends Endocrinol Metab 12:210-217.). […] These effects were abolished by propranolol treatment. […]"}, "[2]": {"tested_on": "human SaOS-2 osteoblastic cells", "assay": "cAMP production in human SaOS-2 osteoblastic cells", "type": "cell-based", "settings": "SaOS-2, added to β-adrenergic receptor agonists", "experimental": "as §1\nFor a sympathetic regulation of bone formation to exist several requirements have to be fulfilled. The first one is that functional adrenergic receptors are present on osteoblasts. […] No other adrenergic receptor subtype could be detected. […] Thus, to assess the biologic relevance of the presence of β2-adrenergic receptors on osteoblasts, these cells were treated with isoproterenol, a β-adrenergic agonist, alone or in the presence of propranolol, a β-adrenergic receptor antagonist; with norepinephrine, the natural ligand of β-adrenergic receptors; with phenylephrine, an α-adrenergic agonist or with vehicle and measured cAMP production. […]"}, "primary osteoblasts": {"tested_on": "primary osteoblasts", "assay": "Gene expression and apoptosis in primary osteoblasts", "type": "cell-based, mouse", "settings": "primary osteoblasts, isoproterenol plus propranolol", "experimental": "as §1\nTo elucidate the bases of the antiosteogenic effect of isoproterenol in vivo, osteoblast proliferation, gene expression and apoptosis were studied."}, "wt mice": {"tested_on": "wt mice", "assay": "Propranolol treatment of wt mice", "type": "in vivo, mouse", "experimental": "(§2) Wildtype (C57BL/6J) and mutant (C57BL/6J A^y/a, C57BL/6J ob/ob) mice were obtained from the Jackson laboratory and adrenal medullectomized mice from Harlan Tecklad laboratory. Dbh−/− mice were rescued as previously described (Thomas et al., 1998, Neurochem 70:2468-2476). Isoproterenol (Sigma) was injected intraperitoneally (ip) once daily for 6 weeks at 30 mg/kg (wt) or 3 mg/kg (ob/ob). Propranolol (Sigma) was added to the drinking water at a concentration of 0.5 g/l. For ICV infusion, a 28-gauge cannula (Brain infusion kit II, Alza) was implanted into the third ventricle as previously described infusing human leptin (Sigma) at 8 ng/hr or MT-II at 125 ng/hr (Phoenix Pharmaceuticals) for 28 days (see, e.g., Ducy et al., 2000, Cell 100: 197-207). The cannula was connected to an osmotic pump (Alza) placed in the dorsal subcutaneous space of the animal. For parabiosis longitudinal incisions were made in the skin and in the peritoneal cavity along one side on each mouse. Edges of the incisions were connected by suture to induce coelioanastomosis. Cross-circulation was quantified by injecting 1 ml/kg 0.25% Evans blue into the tail vein of one mouse of the parabiosed pair. After 30 min. blood was collected from both mice by retroorbital bleeding and the blood exchange rate was calculated according to standard techniques (see, e.g., Harris & Martin, 1984, Am J Physiol 247:R380-386). […] Two weeks after parabiosis a pump delivering leptin ICV in one animal of each pair was implanted. For GTG lesioning, 4-week-old C57BL/6J mice were given a single ip injection of either PBS or GTG (0.5 mg/g). For MSG lesioning, 2 day-old C57BL/6J pups were injected daily subcutaneously with either PBS or MSG (2 mg/g) for 10 days.\nHistological analyses were performed on undecalcified sections stained by von Kossa and counterstained by von Gieson (see, e.g., Ducy et al., 2000, Cell 100:197-207). Static and dynamic histomorphometric analyses were performed according to standard protocols (see, e.g., Parfitt et al., 1987, J Bone Miner Res 6:595-610) using the Osteomeasure Analysis System (Osteometrics, Atlanta). Six to 12 animals were analyzed for each group. Statistical significance was assessed by Student's t test.\nas §1\nThe most important biomedical requirement for regulation of bone formation by the SNS is that β-adrenergic antagonists (β blockers) should increase bone mass by increasing bone formation. To address this point, wt mice were treated for 5 weeks with propranolol (0.4 mg/day). […] In some propranolol-treated mice the bone volume matched what is observed in ob/ob mice. […]"}, "ovariectomized wt mice": {"tested_on": "ovariectomized wt mice", "assay": "Propranolol treatment of ovariectomized wt mice", "type": "in vivo, mouse", "experimental": "as §2\nTo test if it was the case ovariectomy in 6 week-old wt mice was performed and the mice were treated for 7 weeks with propranolol or vehicle. Estrogen depletion by ovariectomy decreased bone mass in vehicle-treated mice. […] This latter result underscores the physiologic and therapeutic importance of the sympathetic regulation of bone formation."}, "rats": {"tested_on": "rats", "settings": "rats treated with propranolol; cited from earlier work"}},
  "data": [
    {"smiles": "CC(C)NCC(O)COc1cccc2ccccc12", "note": "(stereo not shown) [propranolol]", "values": [
      {"measurement": "effect on agonist-induced cAMP production", "setting": "[1]", "result": "abolished"},
      {"measurement": "effect on agonist-induced cAMP production", "setting": "[2]", "result": "inhibited"},
      {"measurement": "inhibitory effect of isoproterenol on gene expression", "setting": "primary osteoblasts", "result": "reversed"},
      {"measurement": "Bone Volume", "setting": "wt mice; Wild-type + propranolol", "result": "High"},
      {"measurement": "hyperinsulinism or other hormonal modifications", "setting": "wt mice; wt mice", "result": "did not cause"},
      {"measurement": "body weight and fat pad weight", "setting": "wt mice; wt mice, 5 weeks, 0.4 mg/day", "result": "remained normal"},
      {"measurement": "bone formation rate", "setting": "wt mice; wt mice, 5 weeks, 0.4 mg/day", "result": "increase"},
      {"measurement": "number of osteoblasts", "setting": "wt mice; wt mice, 5 weeks, 0.4 mg/day", "result": "increase"},
      {"measurement": "bone mass in vertebrae and long bones", "setting": "wt mice; wt mice, 5 weeks, 0.4 mg/day (drinking water 0.5 g/l)", "result": "significant increase"},
      {"measurement": "bone formation rate vs control ovariectomized mice", "setting": "ovariectomized wt mice; ovariectomized mice, 7 weeks", "result": "striking increase"},
      {"measurement": "osteoblast number vs control ovariectomized mice", "setting": "ovariectomized wt mice; ovariectomized mice, 7 weeks", "result": "striking increase"},
      {"measurement": "bone mass", "setting": "ovariectomized wt mice; ovariectomy at 6 weeks of age, treated for 7 weeks", "result": "normal"},
      {"measurement": "femoral metaphyseal mineral apposition rates", "setting": "rats", "result": "Increased"}
    ]}
  ]
}
